Data set [1] can be described thus: Sponge cleavage condition optimization (visual monitoring of sponge incubated with reductant). Conditions: 37° C.; for Remarks: sponge cleavage: 1 mM reductant in William's E medium.
Protocol: For easy visualization during cleavage, HPCSS Gal sponges were pre-soaked in 0.25 mg/mL propidium iodide overnight (Molecular Probes, USA). The stained sponges were incubated with 3 mL each of TCEP and DTT (as known strong reductant) per sponge at various concentrations (25, 10, 5, 3 and 1 mM) in 37° C., 5% CO2 and 95% incubator. The morphological changes of the sponge were monitored visually every 15 minutes.
For data set [2] the following is noted: reduction of disulfide bonds; cited from earlier work.
Data set [3] has as its system F-actin, E-cadherin and MRP2. The data set is described as follows: Immunofluorescence staining of polarity markers and cell-cell junction of retrieved hepatocyte spheroids. The format is cell-based, rat. The note with it: 10 mM TCEP to cleave the sponge. On the procedure:
To stain F-actin, E-cadherin and MRP2, hepatocytes spheroids cultured for 72 hours post-seeding in the sponges and retrieved from HPCSS Gal sponges were fixed in 3.7% paraformaldehyde for 10 minutes. For staining F-actin, the cells were permeabilized for 5 minutes in 0.1% Triton X-100 and incubated with 1 μg/mL TRITC-phalloidin (Molecular Probes, USA) for 20 minutes. For E-cadherin and MRP2 staining, following washing and blocking with 2% BSA/0.2% Triton-X 100 the spheroids were incubated overnight at 4° C. with primary antibodies: anti-rat E-cadherin (BD, USA) and rabbit anti-rat MRP2 (Sigma Aldrich, Singapore), respectively. Secondary antibodies used were goat anti-mouse and goat anti-rabbit 488 and 555 (Molecular Probes, USA), respectively. Nuclei stain was captured using DAPI stain (Vecta Shield, UK). Images were captured using Olympus fluoview FV1000 with a 60× water lens. Images were analysed using IMARIS and assembled using Adobe illustrator CS3.

In the next data set the test system is cells. The note with it: 10 mg/mL, 24 hours of exposure; cited from earlier work.
The test system of data set [4] is CYP1A2, CYP2B2 and CYP3A2. The data set can be described thus: RT-PCR gene expression of cytochrome P450 genes in hepatocyte spheroids. Conditions: 10 mM TCEP, 30 minutes, rat hepatocyte spheroids. It is filed as cell-based. On the procedure:
Rat hepatocyte, E1 and mESCs spheroids were retrieved from the sponge by incubating cell seeded-cleavable sponge with 3 mL of 10 mM TCEP in respective cell culture mediums in each well of 12-well plate for 30 minutes at 37° C. (incubator set up 5% CO2 and 95% humidity). The cleaved sponge solution from each well was mixed thoroughly by 3 mL plastic dropper and then transferred into 15 mL falcon tube. This solution was further diluted with 3 mL pre-warmed DPBS and centrifuged at 100×g for 10 minutes. This washing step was repeated three times to remove TCEP solution completely. Eventually, the retrieved hepatocyte spheroids were resuspended in fresh mediums and replated on collagen coated dish or poly-L-lysine coated dish for further assays or spheroids manipulation.
RNA was extracted from hepatocytes cultured as 3D spheroids in HPCSS Gal sponges by RLT lysis buffer (Qiagen, Singapore). Total RNA concentration was quantified by a Nanodrop (Thermoscientific) and 1 μg of RNA was converted to cDNA by High Capacity RNA-to-cDNA (Applied Biosystems). Primers were designed using Primer 3 and real-time PCR was performed by using SYBR green fast master mix on a ABI 7500 Fast Real-Time PCR system (Applied Biosystems). Gene expression was calculated using the ΔΔCT method normalized to GAPDH. The primers used in experiment are shown below.

Data set [5] can be described thus: Dynamic of sponge cleavage with time lapse imaging. The note with it: 10 mM TCEP, 37° C., confocal time lapse. As to the method: The propidium iodide-prestained HPCSS Gal sponges were incubated with 10 mM TCEP and its macroporosity changes were monitored by Olympus fluoview FV1000 equipped with 37° C. heated chamber with a 60× water lens for 30 minutes with 2 minutes time interval. Images were analysed using IMARIS and images assembled using Adobe illustrator CS3.

In another data set the test system is primary rat hepatocyte. The data set is described as follows: TCEP toxicity study in primary rat hepatocyte (MTT). The format is cell-based. Conditions: for primary rat hepatocyte viability: MTT, ratio to untreated. As to the method: Primary rat hepatocyte was seeded on collagen coated well in 24-well plate format (0.3×10^6 cell per well). The culture was maintained for 3 days and the medium was replenished every day. On the 3rd day, the cells were incubated with TCEP solution in Williams' E medium at pre-determined concentrations and time; 5 mM for 1.5 hour, 10 and 25 mM for 30 minutes each. The duration of the incubation was chosen based on the ability of the associated TCEP concentrations to completely cleave HPCSS Gal sponge. Upon incubation, the morphology of the cells was monitored and followed with further incubation of 1 mg/mL (3-(4,5-dimethylthiazol-2-yl)-2,5-diphenyltetrazolium bromide (MTT) solution for 3 hours. The formed formazan product in each well was dissolved with 300 μL of 0.04 M HCl in isopropanol and its optical density was measured by TECAM Infinite M1000 microplate reader at 570 nm. Cell viability was determined by calculating the ratio of treated sample absorbance against untreated sample absorbance.

Where [6] appears, read: 3 mM reductant in William's E medium.
Setting [7] is: 5 mM reductant in William's E medium.
Where [8] appears, read: 25 mM reductant in William's E medium.

Entries after “also recorded” stand apart in the source; their conditions may differ. A value given as a limit tells only on which side of the number the result lay.

Turning to `O[C@H](CS)[C@H](O)CS` (racemic) [DTT, dithiothreitol], in data set [1], the “Remarks: sponge cleavage” value was “Sponge not”. The “Remarks: time within which sponge cleaved” value was “within 2 hours” in data set [1] (setting [6]), “within 1.5 hour” in data set [1] (setting [7]), “within 30 minutes” in data set [1] (10 mM reductant in William's E medium) and “within 30 minutes” in data set [1] (setting [8]). In addition, in data set [2], the “pH range at which the reductant is effective” value was 7-8.1.
`O=C(O)CCP(CCC(=O)O)CCC(=O)O` [TCEP, tris(2-carboxyethyl)phosphine]: the “effect of TCEP incubation on polarity markers and cell-cell junction” value in data set [3] is on record as “does not show harmful effect”. The remaining viable cells with cells is recorded as 60%. The “effect of TCEP incubation on CYP genes” value in data set [4] is “did not show any significant detrimental effect; also recorded: no significant effect”. Further, the “Remarks: sponge cleavage” value in data set [1] was “Sponge not”. The “Remarks: time within which sponge cleaved” value in data set [1] (setting [6]) is given as “within 2 hours”; in data set [1] (setting [7]) it was “within 1.5 hour”; in data set [1] (setting [8]), “within 30 minutes”. Moreover, the “time at which sponge macroporous networks had shrunken significantly” value in data set [5] was 6 min. The “primary rat hepatocyte viability” value with primary rat hepatocyte (5 mM, 1.5 hour) was 79.75±10.71%; in the data set on primary rat hepatocyte (10 mM, 30 minutes) it was 87.42±8.03%; in the data set on primary rat hepatocyte (25 mM, 30 minutes), 93.06±6.96%. In the data set on primary rat hepatocyte (hepatocytes with and without TCEP incubation), the “cell damage in phase contrast images” value was “No significant cell damage”. Further, in the data set with primary rat hepatocyte (rat hepatocyte, all TCEP configurations tested), the “maintenance of cell viability (FIG. 10 legend)” value is more than 80%. In addition, in data set [2], the “pH range at which the reductant is effective” value is 1.5-8.5.

Source of the values: patent US20140080214A1, “CLEAVABLE CELLULOSIC SPONGE DEVELOPMENT FOR 3 DIMENSIONAL CELL CULTURE AND SPHEROIDS RETRIEVAL” (Agency for Science, Technology and Research, priority 2012, published 2014).
